What was measured:
[1] = target: Protein arginine N-methyltransferase 1 (Homo sapiens, UniProt Q99873); details: at 10 µM
[2] = target: Calcium/calmodulin-dependent protein kinase kinase 1 (Homo sapiens) (UniProt Q8N5S9); test: Selectivity interaction (KinomeScan (DiscoverX)) EUB0000045b CAMKK1
[3] = system: Mast/stem cell growth factor receptor Kit (Homo sapiens), P10721 [V559D,V654A]; details: at 10 µM
[4] = target: Histone-lysine N-methyltransferase, H3 lysine-36 specific (Homo sapiens) (UniProt Q96L73); test: Selectivity interaction (Methyltransferase screen (radiometric assays, panel of 8 PRMTs, 21 protein lysine methyltransferases, 3 DNA methyltransferases, and one RNA methyltransferase)) EUB0000271b NSD1; details: at 10 µM
[5] = system: Leucine-rich repeat serine/threonine-protein kinase 2 (Homo sapiens), Q5S007 [G2019S]; test: (§1) Selectivity interaction (KinomeScan (DiscoverX)) EUB0001049a LRRK2; details: at 1 µM
[6] = target: Leucine-rich repeat serine/threonine-protein kinase 2 (Homo sapiens, UniProt Q5S007); test: as §1; details: at 1 µM
[7] = target: Calcium/calmodulin-dependent protein kinase kinase 1 (Homo sapiens) (UniProt Q8N5S9); test: Selectivity interaction (KinomeScan (DiscoverX)) EUB0001049a CAMKK1; details: at 1 µM
[8] = target: T1, 5-hydroxytryptamine receptor 2C (Homo sapiens) (UniProt P28335); test: Selectivity interaction (Panel of kinases, GPCRs, ion channels and transporters (enzymatic assay)) EUB0000223bCl HTR2C
T1 sequence (whole entry): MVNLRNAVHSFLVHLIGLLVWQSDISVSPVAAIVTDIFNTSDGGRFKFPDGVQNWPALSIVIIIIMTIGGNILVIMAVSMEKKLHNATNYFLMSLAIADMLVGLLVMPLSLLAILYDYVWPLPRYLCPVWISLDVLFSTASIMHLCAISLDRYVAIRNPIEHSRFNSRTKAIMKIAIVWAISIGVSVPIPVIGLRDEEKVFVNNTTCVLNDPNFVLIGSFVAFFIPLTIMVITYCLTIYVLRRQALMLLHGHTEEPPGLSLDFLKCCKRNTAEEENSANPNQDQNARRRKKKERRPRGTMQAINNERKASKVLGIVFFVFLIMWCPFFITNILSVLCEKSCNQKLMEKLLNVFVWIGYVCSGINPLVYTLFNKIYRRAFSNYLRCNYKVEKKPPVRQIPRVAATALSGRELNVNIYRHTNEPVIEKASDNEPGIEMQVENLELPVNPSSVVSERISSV

Insulin receptor = Insulin receptor (Homo sapiens, UniProt P06213); test: Selectivity interaction (SelectScreen profiling (Invitrogen)) EUB0000607a INSR; details: at 2 µM
Chain of Insulin receptor (P06213 28-758 limits assumed): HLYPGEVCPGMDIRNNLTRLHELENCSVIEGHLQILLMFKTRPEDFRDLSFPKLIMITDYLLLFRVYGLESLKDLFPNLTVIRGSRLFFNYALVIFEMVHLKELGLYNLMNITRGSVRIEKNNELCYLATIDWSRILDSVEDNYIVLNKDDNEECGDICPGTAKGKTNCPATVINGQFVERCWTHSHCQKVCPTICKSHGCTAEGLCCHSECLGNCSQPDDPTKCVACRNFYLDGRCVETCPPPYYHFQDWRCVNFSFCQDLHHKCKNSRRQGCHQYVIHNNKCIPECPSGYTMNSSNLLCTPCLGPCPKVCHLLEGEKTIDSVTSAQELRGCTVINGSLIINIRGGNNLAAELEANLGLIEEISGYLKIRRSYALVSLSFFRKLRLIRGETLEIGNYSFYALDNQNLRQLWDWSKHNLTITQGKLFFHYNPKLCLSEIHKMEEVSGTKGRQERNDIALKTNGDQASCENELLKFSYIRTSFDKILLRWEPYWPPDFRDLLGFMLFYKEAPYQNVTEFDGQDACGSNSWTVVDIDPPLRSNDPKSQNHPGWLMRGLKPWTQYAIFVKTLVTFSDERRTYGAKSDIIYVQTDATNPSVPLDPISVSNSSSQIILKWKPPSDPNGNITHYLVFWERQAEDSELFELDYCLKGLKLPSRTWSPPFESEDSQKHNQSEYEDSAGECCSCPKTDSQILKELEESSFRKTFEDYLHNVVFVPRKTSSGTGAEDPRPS
Chain of Insulin receptor (P06213 763-1382 limits assumed): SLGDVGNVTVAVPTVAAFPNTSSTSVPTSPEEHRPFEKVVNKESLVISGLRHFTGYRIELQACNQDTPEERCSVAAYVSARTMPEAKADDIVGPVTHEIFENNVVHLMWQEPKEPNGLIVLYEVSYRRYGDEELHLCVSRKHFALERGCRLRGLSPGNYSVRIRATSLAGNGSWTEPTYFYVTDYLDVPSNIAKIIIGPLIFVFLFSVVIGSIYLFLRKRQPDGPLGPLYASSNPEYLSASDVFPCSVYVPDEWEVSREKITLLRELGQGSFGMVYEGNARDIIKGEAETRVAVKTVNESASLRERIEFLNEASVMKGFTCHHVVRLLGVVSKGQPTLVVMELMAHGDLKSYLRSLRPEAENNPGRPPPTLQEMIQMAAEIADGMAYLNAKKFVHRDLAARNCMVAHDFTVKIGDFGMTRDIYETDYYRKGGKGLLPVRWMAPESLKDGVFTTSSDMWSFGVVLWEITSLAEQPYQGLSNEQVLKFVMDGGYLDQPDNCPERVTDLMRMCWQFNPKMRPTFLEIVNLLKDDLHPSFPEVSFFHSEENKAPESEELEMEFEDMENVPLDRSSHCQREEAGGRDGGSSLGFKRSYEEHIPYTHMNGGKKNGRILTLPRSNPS

[9] = target: T2, Serine/threonine-protein kinase haspin (Homo sapiens) (UniProt Q8TF76); test: Selectivity interaction (Kinase panel (DSF assay)) EUB0001558a GSG2
T2 sequence (whole entry): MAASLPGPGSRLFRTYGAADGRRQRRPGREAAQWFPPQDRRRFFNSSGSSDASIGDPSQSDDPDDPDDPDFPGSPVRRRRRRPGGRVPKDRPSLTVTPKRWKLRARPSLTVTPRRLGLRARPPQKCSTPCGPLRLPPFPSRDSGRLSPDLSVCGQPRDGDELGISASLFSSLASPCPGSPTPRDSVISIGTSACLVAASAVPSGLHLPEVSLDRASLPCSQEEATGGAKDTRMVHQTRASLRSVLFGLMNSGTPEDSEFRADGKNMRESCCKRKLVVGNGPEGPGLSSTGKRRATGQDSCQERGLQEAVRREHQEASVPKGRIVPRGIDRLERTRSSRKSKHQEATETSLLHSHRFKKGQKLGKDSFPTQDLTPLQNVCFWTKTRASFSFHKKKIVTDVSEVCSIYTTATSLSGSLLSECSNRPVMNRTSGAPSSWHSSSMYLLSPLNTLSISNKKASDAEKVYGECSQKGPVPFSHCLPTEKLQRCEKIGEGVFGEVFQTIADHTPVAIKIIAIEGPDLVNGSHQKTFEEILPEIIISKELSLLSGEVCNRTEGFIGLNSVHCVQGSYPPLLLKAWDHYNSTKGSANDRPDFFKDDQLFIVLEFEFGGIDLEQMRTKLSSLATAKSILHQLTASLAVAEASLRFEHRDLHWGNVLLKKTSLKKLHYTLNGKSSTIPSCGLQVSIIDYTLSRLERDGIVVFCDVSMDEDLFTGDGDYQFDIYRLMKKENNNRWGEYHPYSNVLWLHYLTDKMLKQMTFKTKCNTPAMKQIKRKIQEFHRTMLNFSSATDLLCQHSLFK

[10] = target: Mitogen-activated protein kinase 11 (Homo sapiens) (UniProt Q15759); details: at 10 µM
Chain of Mitogen-activated protein kinase 11 (Homo sapiens) (Q15759 whole entry): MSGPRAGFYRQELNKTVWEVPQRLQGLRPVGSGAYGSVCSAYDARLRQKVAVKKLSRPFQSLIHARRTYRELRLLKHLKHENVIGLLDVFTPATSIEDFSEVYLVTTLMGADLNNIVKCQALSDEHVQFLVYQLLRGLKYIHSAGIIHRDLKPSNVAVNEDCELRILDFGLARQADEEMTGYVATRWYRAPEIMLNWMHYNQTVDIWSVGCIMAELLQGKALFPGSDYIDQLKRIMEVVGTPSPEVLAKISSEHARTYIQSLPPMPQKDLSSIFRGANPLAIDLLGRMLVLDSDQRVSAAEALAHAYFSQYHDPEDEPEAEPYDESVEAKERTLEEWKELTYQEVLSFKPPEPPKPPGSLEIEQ

Chain of Calcium/calmodulin-dependent protein kinase kinase 1 (Homo sapiens) (Q8N5S9 whole entry, looked up): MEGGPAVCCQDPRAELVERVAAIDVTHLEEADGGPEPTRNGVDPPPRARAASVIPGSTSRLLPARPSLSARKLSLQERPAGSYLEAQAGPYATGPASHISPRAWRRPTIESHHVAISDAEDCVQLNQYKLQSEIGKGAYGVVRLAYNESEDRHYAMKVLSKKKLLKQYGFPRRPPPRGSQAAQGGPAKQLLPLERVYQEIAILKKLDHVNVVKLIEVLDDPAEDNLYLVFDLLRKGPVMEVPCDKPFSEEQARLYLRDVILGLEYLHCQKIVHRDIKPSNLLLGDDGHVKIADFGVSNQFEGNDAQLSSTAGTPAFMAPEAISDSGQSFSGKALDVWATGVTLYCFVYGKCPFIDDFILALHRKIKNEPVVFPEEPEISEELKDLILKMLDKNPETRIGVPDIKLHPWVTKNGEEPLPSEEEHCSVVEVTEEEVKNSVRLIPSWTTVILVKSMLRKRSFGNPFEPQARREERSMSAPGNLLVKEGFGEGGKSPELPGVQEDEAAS
Chain of Mast/stem cell growth factor receptor Kit (Homo sapiens), P10721 [V559D,V654A] (P10721 whole entry V559D/V654A): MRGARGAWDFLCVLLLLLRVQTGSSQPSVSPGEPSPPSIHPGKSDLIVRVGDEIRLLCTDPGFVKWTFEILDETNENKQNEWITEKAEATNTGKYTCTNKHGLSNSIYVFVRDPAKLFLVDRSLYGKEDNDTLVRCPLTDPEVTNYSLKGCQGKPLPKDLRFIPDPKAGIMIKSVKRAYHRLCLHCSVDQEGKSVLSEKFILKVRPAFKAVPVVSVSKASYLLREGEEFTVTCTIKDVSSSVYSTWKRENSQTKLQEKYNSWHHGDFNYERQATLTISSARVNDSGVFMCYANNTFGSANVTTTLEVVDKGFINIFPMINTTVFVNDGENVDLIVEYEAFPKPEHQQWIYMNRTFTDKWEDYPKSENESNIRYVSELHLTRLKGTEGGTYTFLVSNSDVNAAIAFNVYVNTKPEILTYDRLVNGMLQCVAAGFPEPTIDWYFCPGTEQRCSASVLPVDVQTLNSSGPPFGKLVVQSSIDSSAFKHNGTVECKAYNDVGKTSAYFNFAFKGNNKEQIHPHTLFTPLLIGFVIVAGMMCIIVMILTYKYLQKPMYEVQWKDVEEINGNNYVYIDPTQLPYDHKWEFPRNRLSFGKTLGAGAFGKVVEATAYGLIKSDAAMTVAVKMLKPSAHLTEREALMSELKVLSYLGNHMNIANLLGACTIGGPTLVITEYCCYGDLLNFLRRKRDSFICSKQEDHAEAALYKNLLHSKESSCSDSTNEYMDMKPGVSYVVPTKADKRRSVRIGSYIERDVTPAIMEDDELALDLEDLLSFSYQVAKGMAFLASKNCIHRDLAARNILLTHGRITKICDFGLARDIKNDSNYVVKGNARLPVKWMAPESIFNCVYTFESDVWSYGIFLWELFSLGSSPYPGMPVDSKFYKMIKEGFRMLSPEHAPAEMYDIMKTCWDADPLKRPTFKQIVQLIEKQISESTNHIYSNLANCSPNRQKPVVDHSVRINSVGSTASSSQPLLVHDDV
Chain of Protein arginine N-methyltransferase 1 (Q99873 whole entry, looked up): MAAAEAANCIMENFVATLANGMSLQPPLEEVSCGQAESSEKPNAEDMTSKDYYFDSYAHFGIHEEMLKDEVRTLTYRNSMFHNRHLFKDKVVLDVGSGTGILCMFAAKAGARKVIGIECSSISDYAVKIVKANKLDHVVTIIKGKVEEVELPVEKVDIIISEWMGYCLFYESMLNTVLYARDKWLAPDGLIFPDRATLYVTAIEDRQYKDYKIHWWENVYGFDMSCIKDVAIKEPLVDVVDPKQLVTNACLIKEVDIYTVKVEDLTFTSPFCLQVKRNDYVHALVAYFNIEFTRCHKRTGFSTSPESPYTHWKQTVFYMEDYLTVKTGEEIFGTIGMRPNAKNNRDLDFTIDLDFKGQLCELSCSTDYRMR

Question: For `CNCCN1CCC(c2cc(CN(C)C(=O)c3cccc(Oc4ccccc4)c3)ccn2)CC1`, which % activity [1] is on record?
Answer: > 90%

Question: `C=CC(=O)Nc1cc(-n2c(=O)ccc3cnc4ccc(-c5ccc(NS(C)(=O)=O)cc5)cc4c32)ccc1C` was tested. Which % of control ([2]; at 1 µM) did it give?
Answer: 100%

Question: And the % of control ([2]; at 10 µM)?
Answer: 74%

Question: Which % of control [3] does the source give for `Cc1cc([C@@H](C)Nc2ccccc2C(=O)O)c2nc(N3CCOCC3)cc(=O)n2c1` [AZD-6482] here?
Answer: 96%

Question: With `Cc1cc(C)cc([C@@H]2c3cc(C)ccc3NC(=O)CN2C(=O)c2ccc(Br)s2)c1` as the compound, how does the % of activity [4] read?
Answer: 105%

Question: `COc1cc(Nc2nc(C)cc(-c3cnn4nc(OC)ccc34)n2)cc(C(F)(F)F)c1` was tested. Which % of control [5] did it give?
Answer: 100%

Question: What about the % of control [6] of the same compound?
Answer: 100%

Question: And the % of control [7]?
Answer: 95%

Question: How did the pXC50 [8] turn out when `COc1cc(C(=O)N2CC[C@@H](O)[C@@H](N)C2)cc2nc(-c3cc4ccccc4n3CC3CC3)n(C)c12` was run?
Answer: < 4.4 M

Question: `CNC(=O)Nc1ccc(-c2nc(N3CC4CCC(C3)O4)c3cnn(C4CCC5(CC4)OCCO5)c3n2)cc1` was tested. Which % of inhibition (Insulin receptor) did it give?
Answer: 4%

Question: With `CC(C)(O)[C@H](F)CN1Cc2cc(NC(=O)c3cnn4cccnc34)c(N3CCOCC3)cc2C1=O` as the compound, how does the dTM [9] read?
Answer: 0.4 K

Question: How did the % of control [10] turn out when `CCN(CC)CCCCNc1ncc2cc(-c3cc(OC)cc(OC)c3)c(NC(=O)NC(C)(C)C)nc2n1` was run?
Answer: 100%

From ChEMBL document CHEMBL5465560, “Selectivity Literature for EUbOPEN Chemogenomic Library” (2024)
